Test [1] relates to A549. Description: cells. The settings on record: Homo sapiens, A549, 72 h.
Description: Cytotoxicity against human A549 cells assessed as reduction in cell viability incubated for 72 hrs by MTT assay
The next test has as its system MKN-45. Description: cells. The conditions noted are these: Homo sapiens, MKN-45, 72 h.
For test [2], the system named is HT-29. Description: cells. The settings on record: Homo sapiens, HT-29, 72 h.
Description: Cytotoxicity against human HT-29 cells assessed as reduction in cell viability incubated for 72 hrs by MTT assay
Test [3] concerns NCI-H460. As to the kind of experiment: cells. The settings on record: Homo sapiens, NCI-H460, 72 h.
Description: Cytotoxicity against human H460 cells assessed as reduction in cell viability incubated for 72 hrs by MTT assay
In a further test the test system is U-87 MG. Description: cells. The settings on record: Homo sapiens, 72 h.
The target in test [4] is Hepatocyte growth factor receptor (Homo sapiens, UniProt P08581). Description: Inhibition of cMET (unknown origin) using poly (Glu, Tyr) 4:1 as substrate incubated for 30 mins by HTRF assay. A general note: Time-resolved FRET reads energy transfer from a long-lived donor to a nearby acceptor.
The subject of test [5] is HT-29. Description: Potency index, ratio of IC50 of foretinib to IC50 of compound for cytotoxicity against human HT-29 cells assessed as reduction in cell viability incubated for 72 hrs by MTT assay. It counts as functional. For orientation: Tetrazolium dyes change colour on reduction, which living cells bring about.
Test [6] deals with NCI-H460. Description: Potency index, ratio of IC50 of foretinib to IC50 of compound for cytotoxicity against human H460 cells assessed as reduction in cell viability incubated for 72 hrs by MTT assay. It counts as functional.
In test [7] the test system is A549. Description: Potency index, ratio of IC50 of foretinib to IC50 of compound for cytotoxicity against human A549 cells assessed as reduction in cell viability incubated for 72 hrs by MTT assay. It counts as functional.

The IC50 is the point on the concentration scale where inhibition reaches its midpoint. A low value points to greater potency.

SMILES strings stand for the structures.

Sequence of Hepatocyte growth factor receptor (P08581 whole entry): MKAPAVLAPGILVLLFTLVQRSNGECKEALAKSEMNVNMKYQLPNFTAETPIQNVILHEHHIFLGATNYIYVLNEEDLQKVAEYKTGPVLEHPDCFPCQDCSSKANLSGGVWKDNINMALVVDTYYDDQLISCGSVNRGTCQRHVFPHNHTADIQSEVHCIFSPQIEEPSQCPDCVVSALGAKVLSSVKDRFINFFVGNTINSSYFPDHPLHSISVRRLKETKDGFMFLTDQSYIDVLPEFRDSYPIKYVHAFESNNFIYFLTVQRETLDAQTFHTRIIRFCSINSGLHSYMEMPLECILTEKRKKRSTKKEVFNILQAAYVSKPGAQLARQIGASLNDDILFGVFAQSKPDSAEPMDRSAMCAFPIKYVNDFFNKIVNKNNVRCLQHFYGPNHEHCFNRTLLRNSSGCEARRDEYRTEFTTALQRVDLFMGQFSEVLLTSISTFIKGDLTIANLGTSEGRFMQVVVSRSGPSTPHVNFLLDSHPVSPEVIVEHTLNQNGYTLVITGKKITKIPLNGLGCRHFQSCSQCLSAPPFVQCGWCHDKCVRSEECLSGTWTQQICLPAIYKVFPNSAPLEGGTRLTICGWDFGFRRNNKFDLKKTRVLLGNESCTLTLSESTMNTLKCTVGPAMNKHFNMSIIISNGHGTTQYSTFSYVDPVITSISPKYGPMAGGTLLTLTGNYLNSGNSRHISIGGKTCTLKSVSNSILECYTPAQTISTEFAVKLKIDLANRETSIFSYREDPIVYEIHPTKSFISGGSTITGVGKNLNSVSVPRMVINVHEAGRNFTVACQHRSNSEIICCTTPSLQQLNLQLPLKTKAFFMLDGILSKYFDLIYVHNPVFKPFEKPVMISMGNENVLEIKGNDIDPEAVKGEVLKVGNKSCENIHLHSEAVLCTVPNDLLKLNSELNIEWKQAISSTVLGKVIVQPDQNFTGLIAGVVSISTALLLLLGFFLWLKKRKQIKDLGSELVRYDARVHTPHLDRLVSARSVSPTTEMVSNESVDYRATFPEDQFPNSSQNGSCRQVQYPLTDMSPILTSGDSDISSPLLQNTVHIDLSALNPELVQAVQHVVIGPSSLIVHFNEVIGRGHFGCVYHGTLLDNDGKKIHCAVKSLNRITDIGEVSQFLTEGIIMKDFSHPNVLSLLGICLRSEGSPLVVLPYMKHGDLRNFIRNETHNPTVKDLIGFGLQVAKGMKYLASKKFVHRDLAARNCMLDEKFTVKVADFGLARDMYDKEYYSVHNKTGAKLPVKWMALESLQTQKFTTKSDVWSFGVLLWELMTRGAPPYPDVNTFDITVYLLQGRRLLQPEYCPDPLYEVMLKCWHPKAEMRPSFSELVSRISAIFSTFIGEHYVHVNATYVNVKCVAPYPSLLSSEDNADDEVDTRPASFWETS
Description for MKN-45: Cytotoxicity against human MKN45 cells assessed as reduction in cell viability incubated for 72 hrs by MTT assay
Description for U-87 MG: Cytotoxicity against human U87MG cells assessed as reduction in cell viability incubated for 72 hrs by MTT assay

Regarding `COc1ccc(CCn2c(=O)c(C(=O)Nc3ccc(Oc4ccnc5cc(OCCCN6CCN(C)CC6)c(OC)cc45)c(F)c3)nc3ccccc32)cc1`, the concentration for half-maximal inhibition (IC50) in the test with A549 [1] is 1670 nM; with MKN-45, 4170 nM; in the test on HT-29 [2], 790 nM; in the test on NCI-H460 [3] it was 3300 nM; in the test on U-87 MG, over 10000 nM.

With `COc1cc2c(Oc3ccc(NC(=O)c4nc5ccccc5n(Cc5ccccc5)c4=O)cc3F)ccnc2cc1OCCCN1CCOCC1`, the IC50 in the test with A549 [1] was 5330 nM; in the test with MKN-45 it was 2790 nM; in the test on HT-29 [2], 1120 nM; with NCI-H460 [3] it was 6700 nM; with U-87 MG it was 4280 nM.

With `COc1cc2c(Oc3ccc(NC(=O)c4nc5ccccc5n(C5CCCC5)c4=O)cc3F)ccnc2cc1OCCCN1CCCCC1`, the concentration for half-maximal inhibition (IC50) in the test with A549 [1] was determined as 4360 nM; with MKN-45 it was 1170 nM; with HT-29 [2], 4190 nM; in the test on NCI-H460 [3], 3080 nM; with U-87 MG, 5210 nM.

Consider `COc1cc2c(Oc3ccc(NC(=O)c4nc5ccccc5n(Cc5ccc(F)cc5)c4=O)cc3F)ccnc2cc1OCCCN1CCCCC1`, for which the half-maximal inhibitory concentration (IC50) came out at 1290 nM in the test on A549 [1]; 220 nM in the test with MKN-45; 720 nM in the test on HT-29 [2]; 870 nM in the test with NCI-H460 [3]; 2120 nM in the test with U-87 MG.

`COc1cc2c(Oc3ccc(NC(=O)c4nc5ccccc5n(Cc5ccc(F)cc5)c4=O)cc3F)ccnc2cc1OCCCN1CCC(C)CC1`: the IC50 was found to be 480 nM in the test on A549 [1]; 250 nM in the test on MKN-45; 380 nM in the test on HT-29 [2]; 2.56 nM in test [4]; 620 nM in the test with NCI-H460 [3]; 1960 nM with U-87 MG.

With `COc1cc2c(Oc3ccc(NC(=O)c4nc5ccccc5n(Cc5ccc(F)cc5)c4=O)cc3F)ccnc2cc1OCCCN1CCOCC1`, the IC50 amounted to 2020 nM in the test with A549 [1]; 260 nM in the test on MKN-45; 2380 nM in the test on HT-29 [2]; 930 nM in the test on NCI-H460 [3]; 650 nM in the test with U-87 MG.

Turning to `COc1cc2c(Oc3ccc(NC(=O)c4nc5ccccc5n(C5CCCCC5)c4=O)cc3F)ccnc2cc1OCCCN1CCN(C)CC1`, the IC50 in the test with A549 [1] came to 320 nM; with MKN-45, 230 nM; in the test on HT-29 [2], 230 nM; in test [4] it was 2.34 nM; in the test with NCI-H460 [3], 230 nM; in the test with U-87 MG, 560 nM. The “Ratio IC50” value with HT-29 [5], with NCI-H460 [6] and in the test with A549 [7] was 5 in each case.

Turning to `COc1ccc(CCn2c(=O)c(C(=O)Nc3ccc(Oc4ccnc5cc(OCCCN6CCC(C)CC6)c(OC)cc45)c(F)c3)nc3ccccc32)cc1`, the IC50 in the test with A549 [1] turned out to be 550 nM; with MKN-45 it was 410 nM; with HT-29 [2], 1220 nM; in the test with NCI-H460 [3], 510 nM; with U-87 MG, 2270 nM.

Regarding `COc1cc2c(Oc3ccc(NC(=O)c4nc5ccccc5n(C5CCCC5)c4=O)cc3F)ccnc2cc1OCCCN1CCN(C)CC1`, the half-inhibitory concentration (IC50) in the test with A549 [1] stood at 4370 nM; in the test on MKN-45, 3720 nM; in the test with HT-29 [2], 2490 nM; in the test with NCI-H460 [3], 2110 nM; in the test on U-87 MG, 1590 nM.

In the case of `COc1cc2c(Oc3ccc(NC(=O)c4nc5ccccc5n(CCc5ccccc5)c4=O)cc3F)ccnc2cc1OCCCN1CCN(C)CC1`, the IC50 was 1040 nM in the test with A549 [1]; 310 nM in the test with MKN-45; 960 nM with HT-29 [2]; 450 nM in the test with NCI-H460 [3]; 1260 nM with U-87 MG.

`COc1cc2c(Oc3ccc(NC(=O)c4nc5ccccc5n(Cc5ccc(F)cc5)c4=O)cc3F)ccnc2cc1OCCCN1CCN(C)CC1`: the IC50 was found to be 2770 nM with A549 [1]; 230 nM with MKN-45; 1830 nM in the test on HT-29 [2]; 2240 nM in the test on NCI-H460 [3]; 1730 nM with U-87 MG.

For `COc1cc2c(Oc3ccc(NC(=O)c4nc5ccccc5n(CCc5ccccc5)c4=O)cc3F)ccnc2cc1OCCCN1CCCCC1`, the IC50 with A549 [1] came out at 2360 nM; in the test with MKN-45, 180 nM; in the test with HT-29 [2] it was 870 nM; with NCI-H460 [3] it was 2110 nM; in the test with U-87 MG, 3620 nM.

Take `COc1ccc(CCn2c(=O)c(C(=O)Nc3ccc(Oc4ccnc5cc(OCCCN6CCCCC6)c(OC)cc45)c(F)c3)nc3ccccc32)cc1`: the half-inhibitory concentration (IC50) was determined as 1010 nM in the test on A549 [1]; 480 nM in the test on MKN-45; 940 nM in the test on HT-29 [2]; 450 nM with NCI-H460 [3]; 1600 nM in the test on U-87 MG.

As for `COc1cc2c(Oc3ccc(NC(=O)c4nc5ccccc5n(CCc5ccccc5)c4=O)cc3F)ccnc2cc1OCCCN1CCOCC1`, the IC50 in the test with A549 [1] turned out to be 910 nM; with MKN-45, 780 nM; with HT-29 [2], 350 nM; with NCI-H460 [3] it was 1590 nM; in the test on U-87 MG, 1350 nM.

Regarding `COc1ccc(CCn2c(=O)c(C(=O)Nc3ccc(Oc4ccnc5cc(OCCCN6CCOCC6)c(OC)cc45)c(F)c3)nc3ccccc32)cc1`, the half-inhibitory concentration (IC50) was 6230 nM with A549 [1]; 230 nM with MKN-45; 4940 nM in the test with HT-29 [2]; 2330 nM with NCI-H460 [3]; 12800 nM in the test with U-87 MG.

For `COc1cc2c(Oc3ccc(NC(=O)c4nc5ccccc5n(C5CCCC5)c4=O)cc3F)ccnc2cc1OCCCN1CCC(C)CC1`, the IC50 in the test on A549 [1] was found to be 5790 nM; in the test on MKN-45, 3660 nM; with HT-29 [2], 4430 nM; in the test with NCI-H460 [3] it was 2150 nM; in the test on U-87 MG, 5390 nM.

Regarding `COc1cc2c(Oc3ccc(NC(=O)c4nc5ccccc5n(C5CCCC5)c4=O)cc3F)ccnc2cc1OCCCN1CCOCC1`, the IC50 is 2480 nM in the test on A549 [1]; 3500 nM in the test with MKN-45; 4030 nM in the test with HT-29 [2]; 1670 nM in the test with NCI-H460 [3]; 2990 nM in the test on U-87 MG.

Regarding `COc1cc2c(Oc3ccc(NC(=O)c4nc5ccccc5n(C5CCCCC5)c4=O)cc3F)ccnc2cc1OCCCN1CCC(C)CC1`, the half-inhibitory concentration (IC50) with A549 [1] came out at 1070 nM; with MKN-45, 250 nM; in the test with HT-29 [2] it was 610 nM; in the test with NCI-H460 [3], 250 nM; with U-87 MG, 1670 nM.

As to `COc1cc2c(Oc3ccc(NC(=O)c4nc5ccccc5n(C5CCCCC5)c4=O)cc3F)ccnc2cc1OCCCN1CCCCC1`, the IC50 in the test with A549 [1] came out at 810 nM; in the test on MKN-45 it was 270 nM; in the test with HT-29 [2] it was 270 nM; with NCI-H460 [3], 270 nM; in the test with U-87 MG, 760 nM.

As to `COc1cc2c(Oc3ccc(NC(=O)c4nc5ccccc5n(C5CCCCC5)c4=O)cc3F)ccnc2cc1OCCCN1CCOCC1`, the IC50 with A549 [1] worked out at 390 nM; in the test on MKN-45, 180 nM; in the test on HT-29 [2], 380 nM; in test [4], 1.42 nM; in the test on NCI-H460 [3], 180 nM; with U-87 MG it was 810 nM. Moreover, the “Ratio IC50” value in the test on HT-29 [5], in the test on NCI-H460 [6] and with A549 [7] was 5 throughout.

For `COc1cc2c(Oc3ccc(NC(=O)c4nc5ccccc5n(CCc5ccccc5)c4=O)cc3F)ccnc2cc1OCCCN1CCC(C)CC1`, the IC50 in the test with A549 [1] worked out at 1920 nM; with MKN-45, 650 nM; in the test on HT-29 [2], 1410 nM; in the test with NCI-H460 [3] it was 1070 nM; with U-87 MG it was 2740 nM.

The values are drawn from ChEMBL document CHEMBL4406870, “Design, synthesis, and biological evaluation of 4-phenoxyquinoline derivatives as potent c-Met kinase inhibitor” (Bioorg Med Chem Lett, 2019).
